Measured values: US20260265239A1, “CRYSTAL FORM OF 2,6-PIPERIDINEDIONE COMPOUND, AND PREPARATION METHOD THEREFOR AND USE THEREOF” (ZHANGZHOU PIEN TZE HUANG PHARMACEUTICAL CO., LTD., priority 2023, published 2026)
Counter-ions that a name gives are not always drawn.

Assays:
[1] = test system: human diffuse large B-cell lymphoma TMD-8 cells; experiment: BALB/c nude mouse subcutaneous xenograft tumor model of human diffuse large B-cell lymphoma TMD-8 cells; format: in vivo, BALB/c nude mice; details: for Tumor Volume (Day 0) / Tumor Volume (Day 22): mean ± SEM
Procedure: The antitumor effect of the test compound was evaluated using a BALB/c nude mouse subcutaneous xenograft tumor model of human diffuse large B-cell lymphoma TMD-8 cells.
• 1. Experimental animals: BALB/c nude mice, female, 6 to 8 weeks old. Vital River Laboratory Animal Technology Co., Ltd. • 2. Cell line: Human diffuse large B-cell lymphoma TMD-8 cells (purchased from Shanghai Huzhen Industrial Co., Ltd.).
Cell culture: Routine cell culture was conducted in RPMI-1640 medium containing 10% fetal bovine serum under 5% CO2 at 37° C. Cells were passaged based on cell growth conditions at a passage ratio of 1:3 to 1:4.
Tumor cell inoculation and grouping: TMD-8 cells in the logarithmic growth phase were harvested, counted, and resuspended in a mixture of 50% serum-free RPMI-1640 medium and 50% Matrigel. The cell concentration was adjusted to 4.0×10^7 cells/mL. The cell suspension was placed in an ice box, aspirated using a 1-mL syringe, and injected subcutaneously into the right forelimb axilla of nude mice at 200 μL per animal (0.8×10^7 cells/mouse) to establish the TMD-8 xenograft tumor model. Administration was started when the average tumor volume reached approximately 160 mm^3. The day of grouping was designated as Day 1 (D1) of the experiment, and administration was started based on animal body weight.
The pharmacodynamic experiment was conducted with a 7-day administration cycle, where the test compound was administered once daily intragastrically at 24-hour intervals, for a total of three cycles. During the experiment, animal body weight and tumor size were measured twice a week, and clinical symptoms were observed and recorded daily.
The test compound was administered at doses of 10 mg/kg, 30 mg/kg, and 100 mg/kg, with the vehicle being 10% DMSO/10% Solutol HS15/80% water. Tumor volume (TV) was calculated using the formula: ½×a×b^2, where a and b represent the measured length and width of the tumor, respectively. The tumor growth inhibition rate (TGI, %) was calculated using the formula: TGI (%)=[1−(average tumor volume at the end of administration in a treatment group−average tumor volume at the beginning of administration in this treatment group)/(average tumor volume at the end of treatment in the vehicle control group−average tumor volume at the beginning of treatment in the vehicle control group)]×100%. The relative tumor proliferation rate (T/C, %) was calculated using the formula: T/C %=TRTV/CRTV[…] (TRTV: mean RTV of the treatment group; CRTV: mean RTV of the negative control group). The relative tumor volume (RTV) was calculated based on the tumor measurement results, with the formula RTV=Vt/V0, where V0 is the tumor volume measured at the time of grouping administration (i.e., Day 1), and Vt is the tumor volume at a certain measurement time. TRTV and CRTV were derived from data on the same day.
The experimental data were calculated and subjected to relevant statistical processing using Microsoft Office Excel 2007 software. Unless otherwise specified, the data were expressed as mean±standard error (Mean±SE), and comparisons between groups were performed using t-tests.

[2] = Pharmacokinetic evaluation in mice; format: in vivo, C57BL/6 or C57 male mice
Source text: C57BL/6 or C57 male mice were selected as the test animals for this study. The LC/MS/MS method was employed to quantitatively determine the plasma drug concentrations at various time points after intravenous injection or intragastric administration of the test compound, aiming to evaluate the pharmacokinetic characteristics of the compound of the present disclosure in mice.
C57BL/6 or C57 mice (male, 20 to 30 g, 7 to 10 weeks old, Beijing Vital River).
A clear solution of the test compound was injected intravenously into the tail vein of C57BL/6 mice (fasted overnight) (vehicle: 10% DMSO/10% solutol/80% H2O), or administered intragastrically to C57 mice (fed). […] The mixture was thoroughly vortexed and mixed, and centrifuged at 6000 g for 3 minutes at 2 to 8° C. […] The mixture was thoroughly vortexed and mixed, and centrifuged at 6000 g for 3 minutes at 2 to 8° C. Plasma drug concentrations were determined by the LC-MS/MS method, and relevant pharmacokinetic parameters were calculated using Phoenix WinNonlin 8.2.0 pharmacokinetic software with non-compartmental model linear-log trapezoidal method.

[3] = test system: SU-DHL-2; experiment: Anti-proliferative effect in lymphoma cell line SU-DHL-2 (CellTiter-Glo); format: cell-based, human
Procedure: Objective: This experiment was conducted to detect the inhibitory effect of the compound of formula (I) on cell proliferation in the lymphoma cell line SU-DHL-2.
The tumor cell lines were cultured under the above culture conditions in an incubator at 37° C. and 5% CO2. The cells were passaged periodically, and those in the logarithmic growth phase were harvested for seeding.
• (1) The cells were stained with trypan blue, and the viable cells were counted. • (2) The cell concentration was adjusted to an appropriate concentration.
• (3) 50 μL of cell suspension was added to each well of the culture plate as shown in the figure above. • (4) The culture plate was incubated overnight in an incubator at 37° C., 5% CO2, and 100% relative humidity.
The drug was administered with an Echo655 instrument. A dosing volume of 50 nL was used, with a final DMSO concentration of 0.1%. The culture plate was centrifuged at 1000 rpm for 1 min and incubated at 37° C., 5% CO2, and 100% relative humidity for 4 days. […]

[4] = 10 mg/kg intragastric once daily
[5] = 30 mg/kg intragastric once daily
[6] = 100 mg/kg intragastric once daily
[7] = Intragastric administration (10 mg/kg) (fed)

Compound: O=C1CCC(c2noc3ccc4c(NC(=O)CN5CCN(C[C@H]6CC[C@H](n7cc(NC(=O)c8coc(-c9ccnc(NCC%10CC%10)c9)n8)c(C(F)F)n7)CC6)CC5)cccc4c23)C(=O)N1 (some centres unmarked) [Hydrochloride of Compound of Formula (I)]
- T/C (Day 22) [1, 4]: 58%
- TGI (Day 22) [1, 4]: 49%
- Tumor Volume (Day 0) [1, 4]: 161 ± 12 mm^3
- Tumor Volume (Day 22) [1, 4]: 714 ± 153 mm^3
- T/C (Day 22) [1, 5]: 34%
- TGI (Day 22) [1, 5]: 75%
- Tumor Volume (Day 0) [1, 5]: 160 ± 9 mm^3
- Tumor Volume (Day 22) [1, 5]: 430 ± 98 mm^3
- T/C (Day 22) [1, 6]: 23%
- TGI (Day 22) [1, 6]: 88%
- Tumor Volume (Day 0) [1, 6]: 160 ± 8 mm^3
- Tumor Volume (Day 22) [1, 6]: 291 ± 70 mm^3
- Area Under the Drug-Time Curve (0-inf) [2, 7]: 4.47 µM·h
- Peak Concentration [2, 7]: 0.54 µM
- Time to Peak Concentration [2, 7]: 1.00 h
- Area Under the Drug-Time Curve (0-inf) ([2]; Intravenous Injection (2 mg/kg) (fasted)): 5.40 µM·h
- inhibitory effect on cell proliferation (conclusion) [3]: excellent inhibitory effect
